Drawing on patent publication US4345069A, “Deformyltylosin derivatives” (Toyo Jozo Kabushiki Kaisha, priority 1979, dated 1982), this text covers MIC for 7 molecules.

≈ marks a conversion by molar mass, not a printed value. Like-named read-outs stand apart in the source and are kept apart here.

Holding throughout (experiment): Minimum inhibitory concentration
Common to all, as to type: cell-based

The test system of assay [1] is Staphylococcus aureus MS353 C36. To be noted: MS353C36, read-out: Minimum Inhibitory Concentration. The source says:
(§1) Minimum Inhibitory Concentration (μg/ml)
*erythromycin resistant strain

Assay [2] has as its system Staphylococcus aureus ATCC 6538p. To be noted: ATCC6538P.
The subject of assay [3] is Staphylococcus aureus MS353.
Assay [4] relates to Streptococcus pyogenes N.Y.5.
The subject of assay [5] is Staphylococcus aureus 0126.
From the text: as §1
**erythromycin and oreandomycin resistant strain.

[6] abbreviates: Staphylococcus aureus, 0126, read-out: Minimum Inhibitory Concentration.
Setting [7] is: Staphylococcus aureus 0126, erythromycin and oreandomycin resistant strain, read-out: Minimum Inhibitory Concentration.

`CC[C@H]1OC(=O)C[C@@H](O)[C@H](C)[C@@H](O[C@@H]2O[C@H](C)[C@@H](O[C@H]3C[C@@](C)(O)[C@@H](O)[C@H](C)O3)[C@H](N(C)C)[C@H]2O)[C@@H](CC=O)C[C@@H](C)C(=O)/C=C/C(C)=C/[C@@H]1CO[C@@H]1O[C@H](C)[C@@H](O)[C@@H](OC)[C@H]1OC` [tylosin]: the MIC stood at 1.6 µg/mL (≈ 1.75 µM) in assay [1]; 1.6 µg/mL (≈ 1.75 µM) in assay [2]; 3.1 µg/mL (≈ 3.38 µM) in assay [3]; 0.4 µg/mL (≈ 0.437 µM) in assay [4]; 1.6 µg/mL (≈ 1.75 µM) in assay [5] (setting [6]).

`CCC1OC(=O)C=CC(C)C(OC2OC(C)C(O)C(N(C)C)C2O)C(C)CC(C)C(=O)C=CC(C)=CC1COC1OC(C)C(O)C(OC)C1OC` (stereo not drawn) [19-deformyl-2,3-didehydro-3-dehydroxy-4'-demycarosyltylosin]: the MIC was found to be 0.4 µg/mL (≈ 0.551 µM) in assay [1]; 0.2 µg/mL (≈ 0.276 µM) in assay [2]; 0.2 µg/mL (≈ 0.276 µM) in assay [3]; 0.2 µg/mL (≈ 0.276 µM) in assay [4]; 1.6 µg/mL (≈ 2.2 µM) in assay [5] (setting [7]).

As to `CCC1OC(=O)CC(OC(=O)Cc2ccccc2)C(C)C(OC2OC(C)C(O)C(N(C)C)C2O)C(C)CC(C)C(=O)C=CC(C)=CC1COC1OC(C)C(O)C(OC)C1OC` (stereo not drawn) [19-deformyl-4'-demycarosyl-3-phenylacetyltylosin], the MIC in assay [1] is 0.1 µg/mL (≈ 0.116 µM); in assay [2], 0.2 µg/mL (≈ 0.232 µM); in assay [3], 0.2 µg/mL (≈ 0.232 µM); in assay [4], ≤ 0.05 µg/mL; in assay [5] (setting [6]), 0.4 µg/mL (≈ 0.464 µM).

Turning to `CCC1CC(C)C(=O)C=CC(C)=CC(COC2OC(C)C(O)C(OC)C2OC)C(CC)OC(=O)CC(O)C(C)C1OC1OC(C)C(O)C(N(C)C)C1O` (stereo not drawn) [20-deoxo-4'-demycarosyltylosin], the MIC in assay [1] is 0.1 µg/mL (≈ 0.132 µM); in assay [2], 0.2 µg/mL (≈ 0.264 µM); in assay [3], 0.2 µg/mL (≈ 0.264 µM); in assay [4], 0.2 µg/mL (≈ 0.264 µM).

With `CCC1OC(=O)CC(O)C(C)C(OC2OC(C)C(O)C(N(C)C)C2O)C(C)CC(C)C(=O)C=CC(C)=CC1COC1OC(C)C(O)C(OC)C1OC` (stereo not drawn) [19-deformyl-4'-demycarosyltylosin], the MIC came to 0.2 µg/mL (≈ 0.269 µM) in assay [1]; 0.2 µg/mL (≈ 0.269 µM) in assay [2]; 0.2 µg/mL (≈ 0.269 µM) in assay [3]; 0.1 µg/mL (≈ 0.134 µM) in assay [4]; 0.8 µg/mL (≈ 1.08 µM) in assay [5] (setting [7]).

For `CCC1OC(=O)CC(O)C(C)C(OC2OC(C)C(OC3CC(C)(O)C(O)C(C)O3)C(N(C)C)C2O)C(C)CC(C)C(=O)C=CC(C)=CC1COC1OC(C)C(O)C(OC)C1OC` (stereo not drawn) [19-deformyltylosin], the MIC in assay [1] was determined as 0.8 µg/mL (≈ 0.901 µM); in assay [2], 1.6 µg/mL (≈ 1.8 µM); in assay [3] it was 1.6 µg/mL (≈ 1.8 µM); in assay [4], 1.6 µg/mL (≈ 1.8 µM).

Consider `CC[C@H]1OC(=O)[C@H](C)[C@@H](O[C@H]2C[C@@](C)(OC)[C@@H](O)[C@H](C)O2)[C@H](C)[C@@H](O[C@@H]2O[C@H](C)C[C@H](N(C)C)[C@H]2O)[C@](C)(O)C[C@@H](C)C(=O)[C@H](C)[C@@H](O)[C@]1(C)O` [erythromycin, reference compound], for which the MIC in assay [1] is > 100 µg/mL; in assay [2], 0.2 µg/mL (≈ 0.273 µM); in assay [3] it was 0.2 µg/mL (≈ 0.273 µM); in assay [4] it was ≤ 0.05 µg/mL; in assay [5] (setting [6]), > 100 µg/mL.
